Experimental data published in patent US5395609A, “Synthetic peptides for use in tumor detection” (Antisoma Limited, priority 1989, dated 1995).
No end group written: not given here.

Tested on: metastatic lesions of pelvic melanoma
Experiment: Imaging of metastatic lesions in a human patient with pelvic melanoma after intravenous radiolabelled peptide
Type: in vivo
Protocol: 100 micrograms of the peptide […] labelled with technetium were administered intravenously as one single dose to a human patient with a pelvic melanoma which has metastrasised to the liver.

RGDSCRGDSY labelled with technetium: peptide RGDSCRGDSY labelled with technetium (also: labelled with technetium)
uptake of radiolabelled peptide at metastatic lesions, early view (100 micrograms i.v. single dose, FIG. 2): various sites of uptake (arrow) which correspond to the known metastatic lesions
retention of radiolabelled peptide by metastatic lesions (100 micrograms i.v., one hour later, FIG. 3): retention of the radiolabelled peptide by the metastatic lesions
